Test results from patent US5811278A, “Dipeptidyl peptidase IV from Xanthomonas maltophilia and process for producing the same” (Ajinomoto Co., Inc., priority 1995, dated 1998).
Like-named read-outs stand apart in the source and are kept apart here. Where a SMILES comes first, the peptide text is derived from it. The star is where a group is joined. βNA = c1ccc2cc(N*)ccc2c1

Columns and labels:
Type in all cases: biochemical
[1] = molecular target: T1, dipeptidyl peptidase IV obtainable from Xanthomonas maltophilia (Stenotrophomonas maltophilia, UniProt P95782); assay: biochemical
Target sequence in this assay (P95782 21-741 limits assumed): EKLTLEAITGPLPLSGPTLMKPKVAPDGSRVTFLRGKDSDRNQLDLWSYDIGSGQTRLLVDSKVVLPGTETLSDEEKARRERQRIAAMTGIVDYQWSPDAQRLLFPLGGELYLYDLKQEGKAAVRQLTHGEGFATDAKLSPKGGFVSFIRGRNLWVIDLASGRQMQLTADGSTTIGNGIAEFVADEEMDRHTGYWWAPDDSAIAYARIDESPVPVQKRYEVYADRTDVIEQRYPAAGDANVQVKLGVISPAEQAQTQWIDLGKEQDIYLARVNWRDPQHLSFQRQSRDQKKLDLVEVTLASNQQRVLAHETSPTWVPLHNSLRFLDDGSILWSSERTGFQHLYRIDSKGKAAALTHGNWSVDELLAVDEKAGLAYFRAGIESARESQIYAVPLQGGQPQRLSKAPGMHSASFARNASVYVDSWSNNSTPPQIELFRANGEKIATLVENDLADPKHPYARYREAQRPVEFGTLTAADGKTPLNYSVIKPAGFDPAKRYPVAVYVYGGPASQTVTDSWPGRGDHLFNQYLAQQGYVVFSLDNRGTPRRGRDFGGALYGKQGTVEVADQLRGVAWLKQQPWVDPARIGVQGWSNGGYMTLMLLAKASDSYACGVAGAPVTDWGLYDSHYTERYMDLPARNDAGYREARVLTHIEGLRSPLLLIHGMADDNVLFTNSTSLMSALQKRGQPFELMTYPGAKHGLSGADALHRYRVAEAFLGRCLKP

[2] = molecular target: T1, dipeptidyl peptidase IV obtainable from Xanthomonas maltophilia; assay: Influence of metal ions on the enzyme activity; settings: substrate Gly-Pro-β-naphthylamide; for Relative activity (%): metal ion 1 mM, control 100
Target sequence in this assay (P95782 21-741 limits assumed): as above

[3] = molecular target: T1, dipeptidyl peptidase IV obtainable from Xanthomonas maltophilia; assay: Substrate specificity for low molecular weight synthetic peptide substrates; settings: for activity at 500 µM: read-out: Relative activity (%)
Experimental: In the present invention, the dipeptidyl peptidase IV activity was measured according to the method of Yoshimoto et al. (J. Biochem., 91:1899-1906 (1982)).
The used substrates are shown in Table 1, and the concentration thereof was 0.5 mM.
Using Gly-Pro-β-naphthylamide as the substrate, 0.1 ml of 5 mM Gly-Pro-β-naphthylamide and 0.1 ml of an enzyme solution were added to 0.8 ml of 20 mM Tris-HCl buffer (pH 8.0) containing 5 mM EDTA and allowed to react with each other at 37° C. for 5 minutes, the reaction was terminated by adding 0.5 ml of Fast Garnet GBC (0.1% solution prepared by dissolving it in 1M acetate buffer (pH 4.0) containing 10% Triton X-100) and then absorbance at 550 nm was measured.

[4] = hydrolysis of the substrate by the enzyme, substrate concentration 0.5 mM

## O=C(O)CN(CCN(CC(=O)O)CC(=O)O)CC(=O)O [EDTA]
[1]; read-out: Relative activity (%)
  activity at 5000 µM: 100%

## [Cl][Hg][Cl] [HgCl2]
[2]; 1 mM
  Inhibition of the enzyme activity by metal ion (in words): inhibited by HgCl2 almost completely
[2]
  Relative activity (%): 0%

## C[C@H](N)C(=O)N1CCC[C@H]1C(=O)Nc1ccc2ccccc2c1 [Ala--Pro-β-naphthy1amide] (H-Ala-Pro-βNA)
[3]
  activity at 500 µM: 105%

## [Cl][Ni][Cl] [NiCl2]
[2]
  Relative activity (%): 100%

## Gly--Pro--Leu--Gly (GPLG; printed: Gly--Pro--Leu--Gly)
[3]; [4]
  Relative activity (%): 50%

## Gly--Pro--Ala
[3]; [4]
  Relative activity (%): 40%

## O=C(O)c1cc[c]([Hg][Cl])cc1 [PCMB]
[1]
  Relative activity (%): 96%

## [Cl-].[Cl-].[Zn+2] [ZnCl2]
[2]
  Relative activity (%): 95%

## C[C@H](N)C(=O)N[C@@H](C)C(=O)Nc1ccc2ccccc2c1 [Ala--Ala-β-naphthylamide] (H-Ala-Ala-βNA)
[3]; [4]
  activity at 500 µM: 100%

## NCC(=O)N1CCC[C@H]1C(=O)Nc1ccc2ccccc2c1 [Gly--Pro-β-naphthylamide, Gly-Pro-β-naphthylamide] (H-Gly-Pro-βNA)
[3]; [4]
  activity at 500 µM: 100%
